The record followed here is ChEMBL document CHEMBL1201862, “PubChem BioAssay data set” (2004).

Test systems include DLD-1; DMS-273; HOP-18; LXFL 529; M19-MEL; DMS-114; KM-20L2; RXF 631; XF498.
Holding throughout (assay): DTP human tumour cell line panel, 48 h

Structures are written as SMILES.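 Cultured in 96-well plates, cells were exposed to test compound for 48 hours across five concentrations. Here, GI50 denotes the concentration required for 50% inhibition of growth.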 The source made the active and inactive calls. Cut-off read from the data, not from the text of the source: active = GI50 up to about 1.1 µM and inactive = higher.

For `NC1=NC(Cn2nc(-c3ccccc3)c3ccccc3c2=O)=NNC(=O)N1`, the GI50 in the experiment on DLD-1, in the experiment with DMS-273, with HOP-18, with LXFL 529 and in the experiment with M19-MEL was > 100 µM (inactive) in each case.

As to `CCSc1c2ccccc2c(-c2nc(F)nc(F)n2)n1CCc1ccccc1`, the GI50 in the experiment with DMS-114, in the experiment on DMS-273, in the experiment with KM-20L2, in the experiment with LXFL 529, with M19-MEL and in the experiment on RXF 631 was > 100 µM (inactive) in each case. Besides, in the experiment on XF498, the GI50 was > 100 µM (inactive).

Take `CC1(C)CC(=O)C(C(=O)C(=O)NC2=C(Cl)C(=O)c3ccccc3C2=O)C(=O)C1`: the GI50 with DLD-1 is > 100 µM (inactive); with DMS-114 it was 67.9 µM (inactive); with HOP-18 it was > 100 µM (inactive); with KM-20L2, > 100 µM (inactive); in the experiment on LXFL 529 it was 49.1 µM (inactive); in the experiment with M19-MEL, 61.5 µM (inactive). In addition, the figures for the GI50 in the experiment with RXF 631 and in the experiment with XF498 were 82.4 µM (inactive) and > 100 µM (inactive), respectively.

Consider `CCOC(=O)N1CCC(=O)C[C@@H]1C/C=C/P1(=O)O[C@H](c2ccccc2)C(C)N1C(C)C` (stereo partly drawn), for which the GI50 in the experiment on DMS-114, in the experiment on DMS-273, in the experiment on KM-20L2, in the experiment on LXFL 529 and in the experiment with M19-MEL was > 100 µM (inactive) in each case.

As for `c1csc(C[N+]23CN4CN(CN(C4)C2)C3)c1`, the GI50 in the experiment with DLD-1 is 33.7 µM (inactive); in the experiment with DMS-114, 20.6 µM (inactive); in the experiment on DMS-273, 18.9 µM (inactive); in the experiment on KM-20L2 it was 26.5 µM (inactive); with LXFL 529, 20.3 µM (inactive); in the experiment with M19-MEL, 25.9 µM (inactive).

Consider `COc1ccc(/C=C2\CCC(C)(CN(C)C)C2=O)cc1Br` (stereo not drawn), for which the GI50 in the experiment on DLD-1 was 17.3 µM (inactive); in the experiment on DMS-114, 24.4 µM (inactive); in the experiment with DMS-273 it was 18.2 µM (inactive); in the experiment with HOP-18, 28.8 µM (inactive); with KM-20L2, 1.26 µM (inactive); in the experiment with LXFL 529, 17.9 µM (inactive). Besides, the GI50 in the experiment on M19-MEL is 17.3 µM (inactive); with XF498, 18.8 µM (inactive).

Take `CC(=O)OC1CCCn2c1nc1c2C(=O)C(C)=C(N2CC2)C1=O` (stereo not drawn): the GI50 in the experiment with DLD-1 was 0.583 µM (active); with DMS-114 it was 0.771 µM (active); with DMS-273, 0.15 µM (active); in the experiment with HOP-18, 0.348 µM (active); in the experiment with KM-20L2, 0.45 µM (active); with LXFL 529, 0.614 µM (active). Also, the GI50 in the experiment on M19-MEL is 0.392 µM (active); in the experiment with XF498, 0.234 µM (active).

Consider `COC(=O)CCC(=O)N1CC1C` (stereo not drawn), for which the GI50 in the experiment with DLD-1, in the experiment on DMS-114, in the experiment on DMS-273, with HOP-18, in the experiment on KM-20L2 and in the experiment with LXFL 529 was > 100 µM (inactive) in each case. The GI50 in the experiment with M19-MEL and with XF498 was > 100 µM (inactive) throughout.

On to `COc1ccc([C@@H]2CC(=O)N2)cc1`, for which the GI50 with DLD-1, in the experiment with DMS-114, with DMS-273, in the experiment with HOP-18, with KM-20L2 and in the experiment with LXFL 529 was > 100 µM (inactive) throughout. Moreover, the GI50 with XF498 was > 100 µM (inactive).

On to `Cc1ccc(N2C[N+](c3ccccc3)=NC(c3ccccc3)=N2)cc1`, for which the GI50 with DLD-1 is 54.6 µM (inactive); in the experiment on DMS-114, 24.4 µM (inactive); in the experiment on DMS-273, 30.3 µM (inactive); in the experiment with KM-20L2, 56.9 µM (inactive); in the experiment with LXFL 529, 24.8 µM (inactive); in the experiment with M19-MEL, 28.9 µM (inactive). In addition, the GI50 in the experiment with XF498 was 43.8 µM (inactive).

As for `Cc1cc(O)nc(CNC(=O)c2cccc3ccccc23)n1`, the GI50 in the experiment with DLD-1, in the experiment with DMS-273, in the experiment with KM-20L2, in the experiment with LXFL 529, in the experiment on M19-MEL and in the experiment with XF498 was > 100 µM (inactive) in each case.

For `O=c1[nH]c(=O)n(C2OC(COP(=O)(O)OP(=O)(O)O)C(O)C2O)cc1F` (stereo not drawn), the 50% growth inhibitory concentration (GI50) was 0.226 µM (active) with DLD-1; 28.5 µM (inactive) in the experiment with DMS-114; 0.456 µM (active) with DMS-273; > 28 µM (inactive) in the experiment on HOP-18; 0.923 µM (active) in the experiment on KM-20L2; 0.555 µM (active) with LXFL 529. In addition, the GI50 with M19-MEL was 1.82 µM (inactive); in the experiment with XF498, 1.69 µM (inactive).

As for `CN1CCC(CN2c3ccccc3Sc3ccccc32)CC1`, the GI50 is 14.7 µM (inactive) with DLD-1; 15.9 µM (inactive) in the experiment with DMS-114; 13.4 µM (inactive) in the experiment on DMS-273; 14.3 µM (inactive) in the experiment on HOP-18; 12.9 µM (inactive) with KM-20L2; 14.4 µM (inactive) in the experiment on LXFL 529. Moreover, the GI50 is 13.4 µM (inactive) with M19-MEL and 11.5 µM (inactive) in the experiment with XF498.

In the case of `NC(=O)n1ncc(Cl)c(Cl)c1=O`, the GI50 in the experiment on DLD-1, in the experiment on DMS-114, in the experiment with DMS-273, in the experiment with HOP-18, with KM-20L2 and in the experiment on LXFL 529 was > 100 µM (inactive) throughout. Further, the GI50 in the experiment with M19-MEL, in the experiment on RXF 631 and in the experiment with XF498 was > 100 µM (inactive) in each case.

Regarding `Cc1c(Cl)cccc1NC(=O)C(=O)C1C(=O)NC(=O)NC1=O`, the GI50 with DLD-1, in the experiment on DMS-273, in the experiment with HOP-18, in the experiment with KM-20L2, in the experiment on LXFL 529 and with M19-MEL was > 100 µM (inactive) in each case. Besides, the GI50 in the experiment with XF498 is > 100 µM (inactive).

In the case of `O=C1C[C@@H]2CCCC[C@@H]2C12SCCS2`, the GI50 in the experiment on DLD-1 is > 100 µM (inactive); with DMS-114, 89.1 µM (inactive); with DMS-273, > 100 µM (inactive); in the experiment with LXFL 529 it was > 100 µM (inactive); with M19-MEL it was > 100 µM (inactive); in the experiment with RXF 631 it was > 100 µM (inactive). Also, the GI50 in the experiment on XF498 was 58.1 µM (inactive).

Take `S=c1[nH]c2ccc(Br)cc2c(=S)n1-c1ccccc1`: the GI50 was 28.7 µM (inactive) with DLD-1; 16.9 µM (inactive) in the experiment on DMS-114; 17.1 µM (inactive) in the experiment on DMS-273; 16.5 µM (inactive) in the experiment with HOP-18; 35.2 µM (inactive) with KM-20L2; 17.6 µM (inactive) in the experiment on M19-MEL. For the same compound, the results for the GI50 with RXF 631 and in the experiment on XF498 were 26 µM (inactive) and 19.1 µM (inactive), respectively.

In the case of `N/C(=N\N=C\c1c[nH]c2ccccc12)Nc1ccccc1`, the GI50 with DLD-1 was 0.474 µM (active); in the experiment with DMS-114 it was 0.357 µM (active); in the experiment with DMS-273 it was 0.506 µM (active); in the experiment on HOP-18, 17.9 µM (inactive); in the experiment with KM-20L2, 0.327 µM (active); with LXFL 529 it was 0.504 µM (active).

On to `COC1C2C[C@@H](O)CCC2C(C(=O)OCCl)C[C@H]1O` (stereo partly drawn), for which the GI50 in the experiment on DLD-1, in the experiment with DMS-114, in the experiment on DMS-273, with HOP-18, in the experiment on KM-20L2 and with LXFL 529 was > 100 µM (inactive) each time. Also, the GI50 with M19-MEL and in the experiment on RXF 631 was > 100 µM (inactive) in each case.

Consider `COc1cccc2c1C(=O)C1(O)CCCCC21` (stereo not drawn), for which the GI50 in the experiment on DLD-1, in the experiment on DMS-114, in the experiment on DMS-273, in the experiment with HOP-18, in the experiment with KM-20L2 and in the experiment with LXFL 529 was > 100 µM (inactive) throughout. The GI50 with M19-MEL was > 100 µM (inactive).

Regarding `CS/C(C)=N/OC(=O)NCCCCNc1ccc(N=[N+]=[N-])cc1`, the GI50 in the experiment on DLD-1 was > 100 µM (inactive); in the experiment with DMS-114, 13.1 µM (inactive); with HOP-18 it was > 100 µM (inactive); in the experiment with KM-20L2 it was 41.5 µM (inactive); in the experiment with LXFL 529 it was 24.1 µM (inactive); in the experiment with M19-MEL it was 34.6 µM (inactive). For the same compound, the GI50 with RXF 631 is 17.4 µM (inactive); in the experiment with XF498 it was 13.8 µM (inactive).

In the case of `CCOc1ccc(NC(=O)C(=O)NO)cc1`, the GI50 in the experiment with DLD-1, in the experiment on DMS-114, in the experiment with DMS-273, in the experiment on HOP-18, in the experiment on KM-20L2 and in the experiment on LXFL 529 was > 100 µM (inactive) in each case. In addition, in the experiment on M19-MEL, the GI50 was > 100 µM (inactive).

As for `CC(C)=CCC/C(=C/CC/C(C)=C/CCc1ccoc1)C(=O)O`, the GI50 in the experiment with DLD-1 was 84.5 µM (inactive); with DMS-114 it was > 100 µM (inactive); with KM-20L2, > 100 µM (inactive); in the experiment with LXFL 529, > 100 µM (inactive); with M19-MEL it was > 100 µM (inactive); in the experiment on XF498, > 100 µM (inactive).

On to `c1ccc2c(CNCCCCCCNCc3cccc4ccccc34)cccc2c1`, for which the GI50 with DLD-1 is 3.78 µM (inactive); in the experiment on DMS-114 it was 7.45 µM (inactive); with DMS-273 it was 13.6 µM (inactive); in the experiment on HOP-18 it was 15.5 µM (inactive); in the experiment on KM-20L2 it was 2.61 µM (inactive); in the experiment on LXFL 529 it was 1.91 µM (inactive). In addition, the GI50 with M19-MEL is 4.2 µM (inactive); in the experiment on RXF 631 it was 3.74 µM (inactive); with XF498, 2.42 µM (inactive).

Take `COCC12CC(CC1=O)C1C2ON2c3ccccc3C(=O)C12c1ccccc1` (stereo not drawn): the GI50 in the experiment with DLD-1, with DMS-114, in the experiment on DMS-273, in the experiment on HOP-18, in the experiment on KM-20L2 and in the experiment with LXFL 529 was > 100 µM (inactive) in each case. Also, the GI50 in the experiment with XF498 is > 100 µM (inactive).

Take `CSc1ccc(NC(=O)C2c3[nH]c4ccccc4c3C3CCC(C(C)(C)C)CC3C2C(=O)O)cc1` (stereo not drawn): the GI50 is 12.6 µM (inactive) in the experiment on DLD-1; 19.8 µM (inactive) in the experiment with DMS-114; 16.4 µM (inactive) in the experiment with DMS-273; 16.9 µM (inactive) in the experiment with HOP-18; 16.3 µM (inactive) in the experiment on KM-20L2; 15.9 µM (inactive) in the experiment on LXFL 529. Further, the GI50 with M19-MEL is 21.1 µM (inactive); in the experiment with XF498, 17.9 µM (inactive).

Broadly, the GI50 is the concentration giving 50% growth inhibition.
